The record followed here is patent US11661421B2, “Indolizine compounds, preparation method and use thereof” (HAIHE BIOPHARMA CO., LTD., priority 2018, dated 2023).

In general, IC50 refers to the concentration that gives 50% inhibition.

For this experiment, the target named is T1, PRC2 complex (EZH2 Y641F/EED/SUZ12/RbAp48/AEBP2) histone methyltransferase (Homo sapiens, UniProt Q15910, Y641F).
T1 construct: purchased Cisbio
T1 sequence (Q15910 whole entry Y641F): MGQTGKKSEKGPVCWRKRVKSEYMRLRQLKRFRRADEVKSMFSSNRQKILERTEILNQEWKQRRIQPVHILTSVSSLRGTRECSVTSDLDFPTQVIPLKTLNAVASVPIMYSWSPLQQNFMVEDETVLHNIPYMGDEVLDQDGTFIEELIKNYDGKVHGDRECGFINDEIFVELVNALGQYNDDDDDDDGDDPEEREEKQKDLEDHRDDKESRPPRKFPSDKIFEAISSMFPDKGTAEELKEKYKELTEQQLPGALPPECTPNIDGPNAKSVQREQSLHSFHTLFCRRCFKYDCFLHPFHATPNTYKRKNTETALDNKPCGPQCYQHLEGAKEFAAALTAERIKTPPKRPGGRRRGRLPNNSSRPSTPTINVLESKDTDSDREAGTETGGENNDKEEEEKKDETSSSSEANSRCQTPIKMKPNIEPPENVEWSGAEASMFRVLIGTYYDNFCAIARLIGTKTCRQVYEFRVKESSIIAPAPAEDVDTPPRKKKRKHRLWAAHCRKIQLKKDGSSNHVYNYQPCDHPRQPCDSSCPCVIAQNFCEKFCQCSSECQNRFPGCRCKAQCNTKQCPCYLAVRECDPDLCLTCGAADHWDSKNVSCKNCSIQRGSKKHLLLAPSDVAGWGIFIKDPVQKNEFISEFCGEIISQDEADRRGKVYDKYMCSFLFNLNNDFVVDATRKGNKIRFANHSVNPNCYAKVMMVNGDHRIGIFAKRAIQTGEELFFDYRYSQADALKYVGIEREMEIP
T1 sequence (O75530 whole entry partner): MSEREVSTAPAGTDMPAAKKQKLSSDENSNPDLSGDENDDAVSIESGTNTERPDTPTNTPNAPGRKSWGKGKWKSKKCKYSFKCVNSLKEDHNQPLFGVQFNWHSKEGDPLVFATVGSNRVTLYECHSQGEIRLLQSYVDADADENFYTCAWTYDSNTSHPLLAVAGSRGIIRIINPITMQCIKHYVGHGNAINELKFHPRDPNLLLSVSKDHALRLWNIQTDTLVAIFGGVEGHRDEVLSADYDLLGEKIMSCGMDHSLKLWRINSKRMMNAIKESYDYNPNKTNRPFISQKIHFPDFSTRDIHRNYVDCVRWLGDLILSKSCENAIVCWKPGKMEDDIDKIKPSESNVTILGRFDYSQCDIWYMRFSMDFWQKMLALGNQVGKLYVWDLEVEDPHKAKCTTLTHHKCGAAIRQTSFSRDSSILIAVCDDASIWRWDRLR
T1 sequence (Q15022 whole entry partner): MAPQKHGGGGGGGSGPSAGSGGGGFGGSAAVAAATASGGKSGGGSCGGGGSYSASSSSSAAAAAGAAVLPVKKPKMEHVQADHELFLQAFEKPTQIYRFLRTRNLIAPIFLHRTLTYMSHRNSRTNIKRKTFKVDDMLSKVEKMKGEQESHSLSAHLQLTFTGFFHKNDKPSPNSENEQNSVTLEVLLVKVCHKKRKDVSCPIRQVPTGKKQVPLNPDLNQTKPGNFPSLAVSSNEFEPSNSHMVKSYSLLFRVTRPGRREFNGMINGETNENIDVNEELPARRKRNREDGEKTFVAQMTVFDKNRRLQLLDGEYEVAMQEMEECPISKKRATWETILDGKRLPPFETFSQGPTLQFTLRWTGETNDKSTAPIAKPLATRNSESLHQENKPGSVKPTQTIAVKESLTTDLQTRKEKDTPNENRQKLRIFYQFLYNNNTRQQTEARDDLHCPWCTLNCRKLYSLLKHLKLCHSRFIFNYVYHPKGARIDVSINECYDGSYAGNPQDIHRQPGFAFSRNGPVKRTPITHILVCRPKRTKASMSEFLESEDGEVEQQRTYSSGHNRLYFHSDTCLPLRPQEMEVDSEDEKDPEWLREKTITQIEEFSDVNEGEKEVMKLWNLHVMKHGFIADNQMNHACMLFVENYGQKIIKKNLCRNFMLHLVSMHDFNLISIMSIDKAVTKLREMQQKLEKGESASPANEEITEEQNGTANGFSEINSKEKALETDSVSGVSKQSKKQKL
T1 sequence (Q09028 whole entry partner): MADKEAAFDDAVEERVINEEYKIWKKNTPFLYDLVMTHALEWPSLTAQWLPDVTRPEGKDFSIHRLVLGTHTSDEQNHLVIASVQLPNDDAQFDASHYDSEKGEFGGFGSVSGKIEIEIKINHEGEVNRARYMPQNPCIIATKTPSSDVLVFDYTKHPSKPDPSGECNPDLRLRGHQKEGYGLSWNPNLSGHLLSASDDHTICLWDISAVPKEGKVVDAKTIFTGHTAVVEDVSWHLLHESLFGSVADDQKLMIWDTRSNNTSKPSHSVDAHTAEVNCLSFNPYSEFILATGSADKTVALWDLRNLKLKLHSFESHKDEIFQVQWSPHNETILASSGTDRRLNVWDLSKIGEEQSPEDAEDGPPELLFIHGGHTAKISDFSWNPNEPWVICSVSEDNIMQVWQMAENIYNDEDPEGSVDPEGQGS
T1 sequence (Q6ZN18 whole entry partner): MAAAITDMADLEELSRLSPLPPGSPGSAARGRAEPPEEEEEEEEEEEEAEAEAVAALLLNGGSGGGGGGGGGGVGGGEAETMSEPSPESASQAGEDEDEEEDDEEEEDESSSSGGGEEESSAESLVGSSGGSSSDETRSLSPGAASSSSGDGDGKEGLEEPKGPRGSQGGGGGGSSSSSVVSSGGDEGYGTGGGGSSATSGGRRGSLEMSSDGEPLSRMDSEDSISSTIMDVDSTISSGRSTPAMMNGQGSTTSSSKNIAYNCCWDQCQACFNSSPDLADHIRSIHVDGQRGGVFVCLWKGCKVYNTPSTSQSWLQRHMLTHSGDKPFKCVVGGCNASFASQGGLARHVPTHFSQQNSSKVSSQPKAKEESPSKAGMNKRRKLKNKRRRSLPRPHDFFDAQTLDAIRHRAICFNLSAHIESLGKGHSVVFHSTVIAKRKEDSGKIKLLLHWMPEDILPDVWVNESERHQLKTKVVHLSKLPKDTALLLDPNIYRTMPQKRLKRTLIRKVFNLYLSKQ
Kind of experiment: PRC2 complex (EZH2 Y641F) activity assay, HTRF. Conditions: H3(1-50) K27me1 substrate, SAM, 4 h at room temperature, read-out: IC50 (EZH2_Y641F). Type of experiment: biochemical. A general note: Time-resolved FRET reads energy transfer from a long-lived donor to a nearby acceptor.
Description: PRC2 Complex (Ezh2y641f) Activity Assay of the Compounds:
Test Method: Homogeneous Time-Resolved Fluorescence (HTRF)
Materials: PRC2 complex (EZH2 Y641F/EED/SUZ12/RbAp48/AEBP2) histone methyltransferase used in the test was purchased from Cisbio; substrate H3(1-50) K27me1 was a product of GL Biochem; methyl donor S-(5′-Adenosyl)-L-methionine chloride dihydrochloride (SAM) was purchased from Sigma-aldrich; Eu-labeled H3K27me3, Streptavidin-XL665 and the buffer used in the test were purchased from Cisbio.
Experiment method: PRC2 complex (EZH2 Y641F/EED/SUZ12/RbAp48/AEBP2), H3(1-50)me1 substrate, methyl donor SAM and the test compound were added to each well to reach a total of 10 μL reaction system and reacted in dark at room temperature for 4h. 5 μL of Eu-labeled H3K27 Me3 antibody and 5 μL of Streptavidin-XL665 were added to each well, mixed uniformly, and incubated at room temperature for 1 h. The fluorescence values at 620 nm and 665 nm were measured with a multi-label microplate analysis system (PerkinElmer Envision), and the HTRF signal ratio (665 nm/620 nm) was calculated for each well. The IC50 values of the compounds were calculated using SoftMax Pro 5.4.1 software.
`CC=C(c1c(C)c(C(=O)NCc2c(OC)cc(C)[nH]c2=O)cc2c(-c3ccnc(N(C)C)c3)ccn12)N1CCOCC1` [compound 1, 1-(2-(dimethylamino)pyridin-4-yl)-N-((4-methoxy-6-methyl-2-oxo-1,2-dihydropyridin-3-yl)methyl)-6-methyl-5-(1-morpholinylpropyl-1-en-1-yl)indolizine-7-formamide]: the IC50 was 11.4 nM.

As for `CNc1cc(-c2ccn3c(C(C)=C4CCN(CC(F)(F)F)CC4)c(C)c(C(=O)NCc4c(OC)cc(C)[nH]c4=O)cc23)ccn1` [compound 5, N-((4-methoxy-6-methyl-2-oxo-1,2-dihydropyridin-3-yl)methyl)-6-methyl-1-(2-(methylamino)pyridin-4-yl)-5-(1-(1-(2,2,2-trifluoroethyl)piperidin-4-alkenylene)ethyl)indolizine-7-carboxamide], the IC50 is 6.73 nM.

Regarding `COc1cc(C)[nH]c(=O)c1CNC(=O)c1cc2c(-c3ccnc(N(C)C)c3)ccn2c(C(C)=C2CCN(CC(F)(F)F)CC2)c1C` [compound 4, 1-(2-(dimethylamino)pyridin-4-yl)-N-((4-methoxy-6-methyl-2-oxo-1,2-dihydropyridine-3-yl)methyl)-6-methyl-5-(1-(1-(2,2,2-trifluoroethyl)piperidin-4-alkenylene)ethyl)indolizine-7-formamide], the IC50 was found to be 8.82 nM.

Regarding `C=C(c1c(C)c(C(=O)NCc2c(OC)cc(C)[nH]c2=O)cc2c(-c3ccc(C)nn3)ccn12)N1CCN(CC(F)(F)F)CC1` [compound 3, N-((4-methoxy-6-methyl-2-oxo-1,2-dihydropyridin-3-yl)methyl)-6-methyl-1-(6-methylpyridazin-3-yl)-5-(1-(4-(2,2,2-trifluoroethyl)piperazin-1-yl)vinyl)indolizine-7-carboxamide], the IC50 worked out at 4.91 nM.
